Source: the supplement of paper PMC8967900

Tested on: MHH-CALL-2
Test: selective drug sensitivity score (sDSS, relative to normal bone marrow) (sDSS (score)); higher = more potent and effective on the cell line relative to normal bone marrow cells
Conditions: 72 h
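Note: ALL cell lines in 384-well plates, five doses spanning 10,000-fold, each plate scaled between vehicle and 100 µmol/L benzalkonium chloride controls, sDSS an adapted area-under-curve metric.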

SMILES	selective drug sensitivity score
CC#CC(=O)N1CC[C@@H](n2c(=O)n(-c3ccc(Oc4ccccc4)cc3)c3c(N)ncnc32)C1 [Tirabrutinib] (top concentration 1000 nM)	0
CC(C)C[C@@H](C(=O)N[C@H](C(=O)OC1CCCC1)c1ccccc1)[C@H](O)C(=O)NO [Tosedostat] (top concentration 10000 nM)	5.76
CS(=O)(=O)c1ccc(-c2cnc(N)c(C(=O)Nc3ccccc3)n2)cc1 [VE-821] (top concentration 10000 nM)	7.84
CNC(=O)c1ccccc1Nc1cc(Nc2ccc(N3CCOCC3)cc2OC)ncc1C(F)(F)F [VS-4718] (top concentration 10000 nM)	8.9
Cc1cccc(-c2[nH]c(CNc3ccccc3F)nc2-c2ccc3ncnn3c2)n1 [Vactosertib (TEW-7197)] (top concentration 2500 nM)	-0.3
O=C(/C=C\n1cnc(-c2cc(C(F)(F)F)cc(C(F)(F)F)c2)n1)NNc1ccccn1 [Verdinexor] (top concentration 1000 nM)	1.84
CC[C@@H]1C(=O)N(C)c2cnc(Nc3ccc(C(=O)N[C@H]4CC[C@H](N5CCN(CC6CC6)CC5)CC4)cc3OC)nc2N1C(C)C [Volasertib] (top concentration 1000 nM)	10.6
O=C(CCCCCCC(=O)Nc1ccccc1)NO [Vorinostat] (top concentration 10000 nM)	8.7

Tested on: MHH-CALL-4
Test: as above
Conditions: 72 h

SMILES	selective drug sensitivity score
CC#CC(=O)N1CC[C@@H](n2c(=O)n(-c3ccc(Oc4ccccc4)cc3)c3c(N)ncnc32)C1 [Tirabrutinib] (top concentration 1000 nM)	1.5
CC(C)C[C@@H](C(=O)N[C@H](C(=O)OC1CCCC1)c1ccccc1)[C@H](O)C(=O)NO [Tosedostat] (top concentration 10000 nM)	1.26
CS(=O)(=O)c1ccc(-c2cnc(N)c(C(=O)Nc3ccccc3)n2)cc1 [VE-821] (top concentration 10000 nM)	-0.66
CNC(=O)c1ccccc1Nc1cc(Nc2ccc(N3CCOCC3)cc2OC)ncc1C(F)(F)F [VS-4718] (top concentration 10000 nM)	6.4
Cc1cccc(-c2[nH]c(CNc3ccccc3F)nc2-c2ccc3ncnn3c2)n1 [Vactosertib (TEW-7197)] (top concentration 2500 nM)	7.2
O=C(/C=C\n1cnc(-c2cc(C(F)(F)F)cc(C(F)(F)F)c2)n1)NNc1ccccn1 [Verdinexor] (top concentration 1000 nM)	1.84
CC[C@@H]1C(=O)N(C)c2cnc(Nc3ccc(C(=O)N[C@H]4CC[C@H](N5CCN(CC6CC6)CC5)CC4)cc3OC)nc2N1C(C)C [Volasertib] (top concentration 1000 nM)	0.9
O=C(CCCCCCC(=O)Nc1ccccc1)NO [Vorinostat] (top concentration 10000 nM)	3.9

Tested on: MN-60
Test: as above
Conditions: 72 h

SMILES	selective drug sensitivity score
CC#CC(=O)N1CC[C@@H](n2c(=O)n(-c3ccc(Oc4ccccc4)cc3)c3c(N)ncnc32)C1 [Tirabrutinib] (top concentration 1000 nM)	0
CC(C)C[C@@H](C(=O)N[C@H](C(=O)OC1CCCC1)c1ccccc1)[C@H](O)C(=O)NO [Tosedostat] (top concentration 10000 nM)	-2.44
CS(=O)(=O)c1ccc(-c2cnc(N)c(C(=O)Nc3ccccc3)n2)cc1 [VE-821] (top concentration 10000 nM)	-0.66
CNC(=O)c1ccccc1Nc1cc(Nc2ccc(N3CCOCC3)cc2OC)ncc1C(F)(F)F [VS-4718] (top concentration 10000 nM)	-3.4
Cc1cccc(-c2[nH]c(CNc3ccccc3F)nc2-c2ccc3ncnn3c2)n1 [Vactosertib (TEW-7197)] (top concentration 2500 nM)	-0.1
O=C(/C=C\n1cnc(-c2cc(C(F)(F)F)cc(C(F)(F)F)c2)n1)NNc1ccccn1 [Verdinexor] (top concentration 1000 nM)	2.24
CC[C@@H]1C(=O)N(C)c2cnc(Nc3ccc(C(=O)N[C@H]4CC[C@H](N5CCN(CC6CC6)CC5)CC4)cc3OC)nc2N1C(C)C [Volasertib] (top concentration 1000 nM)	0.4
O=C(CCCCCCC(=O)Nc1ccccc1)NO [Vorinostat] (top concentration 10000 nM)	0.8

Tested on: MOLT-14
Test: as above
Conditions: 72 h

SMILES	selective drug sensitivity score
CC#CC(=O)N1CC[C@@H](n2c(=O)n(-c3ccc(Oc4ccccc4)cc3)c3c(N)ncnc32)C1 [Tirabrutinib] (top concentration 1000 nM)	0
CC(C)C[C@@H](C(=O)N[C@H](C(=O)OC1CCCC1)c1ccccc1)[C@H](O)C(=O)NO [Tosedostat] (top concentration 10000 nM)	6.46
CS(=O)(=O)c1ccc(-c2cnc(N)c(C(=O)Nc3ccccc3)n2)cc1 [VE-821] (top concentration 10000 nM)	0.74
CNC(=O)c1ccccc1Nc1cc(Nc2ccc(N3CCOCC3)cc2OC)ncc1C(F)(F)F [VS-4718] (top concentration 10000 nM)	1.1
Cc1cccc(-c2[nH]c(CNc3ccccc3F)nc2-c2ccc3ncnn3c2)n1 [Vactosertib (TEW-7197)] (top concentration 2500 nM)	0.8
O=C(/C=C\n1cnc(-c2cc(C(F)(F)F)cc(C(F)(F)F)c2)n1)NNc1ccccn1 [Verdinexor] (top concentration 1000 nM)	13.3
CC[C@@H]1C(=O)N(C)c2cnc(Nc3ccc(C(=O)N[C@H]4CC[C@H](N5CCN(CC6CC6)CC5)CC4)cc3OC)nc2N1C(C)C [Volasertib] (top concentration 1000 nM)	13.4
O=C(CCCCCCC(=O)Nc1ccccc1)NO [Vorinostat] (top concentration 10000 nM)	9.6

Tested on: MOLT-16
Test: as above
Conditions: 72 h

SMILES	selective drug sensitivity score
CC#CC(=O)N1CC[C@@H](n2c(=O)n(-c3ccc(Oc4ccccc4)cc3)c3c(N)ncnc32)C1 [Tirabrutinib] (top concentration 1000 nM)	0.9
CC(C)C[C@@H](C(=O)N[C@H](C(=O)OC1CCCC1)c1ccccc1)[C@H](O)C(=O)NO [Tosedostat] (top concentration 10000 nM)	10.4
CS(=O)(=O)c1ccc(-c2cnc(N)c(C(=O)Nc3ccccc3)n2)cc1 [VE-821] (top concentration 10000 nM)	7.94
CNC(=O)c1ccccc1Nc1cc(Nc2ccc(N3CCOCC3)cc2OC)ncc1C(F)(F)F [VS-4718] (top concentration 10000 nM)	6.1
Cc1cccc(-c2[nH]c(CNc3ccccc3F)nc2-c2ccc3ncnn3c2)n1 [Vactosertib (TEW-7197)] (top concentration 2500 nM)	10.7
O=C(/C=C\n1cnc(-c2cc(C(F)(F)F)cc(C(F)(F)F)c2)n1)NNc1ccccn1 [Verdinexor] (top concentration 1000 nM)	11.1
CC[C@@H]1C(=O)N(C)c2cnc(Nc3ccc(C(=O)N[C@H]4CC[C@H](N5CCN(CC6CC6)CC5)CC4)cc3OC)nc2N1C(C)C [Volasertib] (top concentration 1000 nM)	12.7
O=C(CCCCCCC(=O)Nc1ccccc1)NO [Vorinostat] (top concentration 10000 nM)	15.5

Tested on: NALL-1
Test: as above
Conditions: 72 h

SMILES	selective drug sensitivity score
CC#CC(=O)N1CC[C@@H](n2c(=O)n(-c3ccc(Oc4ccccc4)cc3)c3c(N)ncnc32)C1 [Tirabrutinib] (top concentration 1000 nM)	3.7
CC(C)C[C@@H](C(=O)N[C@H](C(=O)OC1CCCC1)c1ccccc1)[C@H](O)C(=O)NO [Tosedostat] (top concentration 10000 nM)	0.86
CS(=O)(=O)c1ccc(-c2cnc(N)c(C(=O)Nc3ccccc3)n2)cc1 [VE-821] (top concentration 10000 nM)	-0.66
CNC(=O)c1ccccc1Nc1cc(Nc2ccc(N3CCOCC3)cc2OC)ncc1C(F)(F)F [VS-4718] (top concentration 10000 nM)	8.7
Cc1cccc(-c2[nH]c(CNc3ccccc3F)nc2-c2ccc3ncnn3c2)n1 [Vactosertib (TEW-7197)] (top concentration 2500 nM)	-0.4
O=C(/C=C\n1cnc(-c2cc(C(F)(F)F)cc(C(F)(F)F)c2)n1)NNc1ccccn1 [Verdinexor] (top concentration 1000 nM)	0.64
CC[C@@H]1C(=O)N(C)c2cnc(Nc3ccc(C(=O)N[C@H]4CC[C@H](N5CCN(CC6CC6)CC5)CC4)cc3OC)nc2N1C(C)C [Volasertib] (top concentration 1000 nM)	12.3
O=C(CCCCCCC(=O)Nc1ccccc1)NO [Vorinostat] (top concentration 10000 nM)	-3.5

Tested on: P30-OHKUBO
Test: as above
Conditions: 72 h

SMILES	selective drug sensitivity score
CC#CC(=O)N1CC[C@@H](n2c(=O)n(-c3ccc(Oc4ccccc4)cc3)c3c(N)ncnc32)C1 [Tirabrutinib] (top concentration 1000 nM)	0
CC(C)C[C@@H](C(=O)N[C@H](C(=O)OC1CCCC1)c1ccccc1)[C@H](O)C(=O)NO [Tosedostat] (top concentration 10000 nM)	4.96
CS(=O)(=O)c1ccc(-c2cnc(N)c(C(=O)Nc3ccccc3)n2)cc1 [VE-821] (top concentration 10000 nM)	-0.16
CNC(=O)c1ccccc1Nc1cc(Nc2ccc(N3CCOCC3)cc2OC)ncc1C(F)(F)F [VS-4718] (top concentration 10000 nM)	0.4
Cc1cccc(-c2[nH]c(CNc3ccccc3F)nc2-c2ccc3ncnn3c2)n1 [Vactosertib (TEW-7197)] (top concentration 2500 nM)	-0.4
O=C(/C=C\n1cnc(-c2cc(C(F)(F)F)cc(C(F)(F)F)c2)n1)NNc1ccccn1 [Verdinexor] (top concentration 1000 nM)	4.34
CC[C@@H]1C(=O)N(C)c2cnc(Nc3ccc(C(=O)N[C@H]4CC[C@H](N5CCN(CC6CC6)CC5)CC4)cc3OC)nc2N1C(C)C [Volasertib] (top concentration 1000 nM)	13.1
O=C(CCCCCCC(=O)Nc1ccccc1)NO [Vorinostat] (top concentration 10000 nM)	10

Tested on: PF-382
Test: as above
Conditions: 72 h

SMILES	selective drug sensitivity score
CC#CC(=O)N1CC[C@@H](n2c(=O)n(-c3ccc(Oc4ccccc4)cc3)c3c(N)ncnc32)C1 [Tirabrutinib] (top concentration 1000 nM)	0
CC(C)C[C@@H](C(=O)N[C@H](C(=O)OC1CCCC1)c1ccccc1)[C@H](O)C(=O)NO [Tosedostat] (top concentration 10000 nM)	5.66
CS(=O)(=O)c1ccc(-c2cnc(N)c(C(=O)Nc3ccccc3)n2)cc1 [VE-821] (top concentration 10000 nM)	-0.56
CNC(=O)c1ccccc1Nc1cc(Nc2ccc(N3CCOCC3)cc2OC)ncc1C(F)(F)F [VS-4718] (top concentration 10000 nM)	-0.3
Cc1cccc(-c2[nH]c(CNc3ccccc3F)nc2-c2ccc3ncnn3c2)n1 [Vactosertib (TEW-7197)] (top concentration 2500 nM)	-0.5
O=C(/C=C\n1cnc(-c2cc(C(F)(F)F)cc(C(F)(F)F)c2)n1)NNc1ccccn1 [Verdinexor] (top concentration 1000 nM)	6.54
CC[C@@H]1C(=O)N(C)c2cnc(Nc3ccc(C(=O)N[C@H]4CC[C@H](N5CCN(CC6CC6)CC5)CC4)cc3OC)nc2N1C(C)C [Volasertib] (top concentration 1000 nM)	13.6
O=C(CCCCCCC(=O)Nc1ccccc1)NO [Vorinostat] (top concentration 10000 nM)	4.1

Tested on: RCH-ACV
Test: as above
Conditions: 72 h

SMILES	selective drug sensitivity score
CC#CC(=O)N1CC[C@@H](n2c(=O)n(-c3ccc(Oc4ccccc4)cc3)c3c(N)ncnc32)C1 [Tirabrutinib] (top concentration 1000 nM)	11
CC(C)C[C@@H](C(=O)N[C@H](C(=O)OC1CCCC1)c1ccccc1)[C@H](O)C(=O)NO [Tosedostat] (top concentration 10000 nM)	2.16
CS(=O)(=O)c1ccc(-c2cnc(N)c(C(=O)Nc3ccccc3)n2)cc1 [VE-821] (top concentration 10000 nM)	7.94
CNC(=O)c1ccccc1Nc1cc(Nc2ccc(N3CCOCC3)cc2OC)ncc1C(F)(F)F [VS-4718] (top concentration 10000 nM)	0.8
Cc1cccc(-c2[nH]c(CNc3ccccc3F)nc2-c2ccc3ncnn3c2)n1 [Vactosertib (TEW-7197)] (top concentration 2500 nM)	-0.5
O=C(/C=C\n1cnc(-c2cc(C(F)(F)F)cc(C(F)(F)F)c2)n1)NNc1ccccn1 [Verdinexor] (top concentration 1000 nM)	9.04
CC[C@@H]1C(=O)N(C)c2cnc(Nc3ccc(C(=O)N[C@H]4CC[C@H](N5CCN(CC6CC6)CC5)CC4)cc3OC)nc2N1C(C)C [Volasertib] (top concentration 1000 nM)	13.9
O=C(CCCCCCC(=O)Nc1ccccc1)NO [Vorinostat] (top concentration 10000 nM)	16.5

Tested on: TMD5
Test: as above
Conditions: 72 h

SMILES	selective drug sensitivity score
CC#CC(=O)N1CC[C@@H](n2c(=O)n(-c3ccc(Oc4ccccc4)cc3)c3c(N)ncnc32)C1 [Tirabrutinib] (top concentration 1000 nM)	1
CC(C)C[C@@H](C(=O)N[C@H](C(=O)OC1CCCC1)c1ccccc1)[C@H](O)C(=O)NO [Tosedostat] (top concentration 10000 nM)	0.46
CS(=O)(=O)c1ccc(-c2cnc(N)c(C(=O)Nc3ccccc3)n2)cc1 [VE-821] (top concentration 10000 nM)	-0.66
CNC(=O)c1ccccc1Nc1cc(Nc2ccc(N3CCOCC3)cc2OC)ncc1C(F)(F)F [VS-4718] (top concentration 10000 nM)	6.8
Cc1cccc(-c2[nH]c(CNc3ccccc3F)nc2-c2ccc3ncnn3c2)n1 [Vactosertib (TEW-7197)] (top concentration 2500 nM)	-0.5
O=C(/C=C\n1cnc(-c2cc(C(F)(F)F)cc(C(F)(F)F)c2)n1)NNc1ccccn1 [Verdinexor] (top concentration 1000 nM)	0.14
CC[C@@H]1C(=O)N(C)c2cnc(Nc3ccc(C(=O)N[C@H]4CC[C@H](N5CCN(CC6CC6)CC5)CC4)cc3OC)nc2N1C(C)C [Volasertib] (top concentration 1000 nM)	10.1
O=C(CCCCCCC(=O)Nc1ccccc1)NO [Vorinostat] (top concentration 10000 nM)	-0.1
